Test results: US20250215029A1 (Recludix Pharma, Inc., priority 2022, published 2025)
Like-named read-outs stand apart in the source and are kept apart here.

How the values were obtained:
[1] = molecular target: T1, Recombinant STAT6 protein (STAT6 (W123-T658)) (Homo sapiens, UniProt P42226); experiment: STAT6 Fluorescence Polarization (FP) Assay; type: binding; details: probe 5-FAM-Ap[…]-NH2 2 nM, 45-minute incubation
T1 construct: Recombinant STAT6 protein (STAT6 (W123-T658))
T1 sequence (P42226 123-658): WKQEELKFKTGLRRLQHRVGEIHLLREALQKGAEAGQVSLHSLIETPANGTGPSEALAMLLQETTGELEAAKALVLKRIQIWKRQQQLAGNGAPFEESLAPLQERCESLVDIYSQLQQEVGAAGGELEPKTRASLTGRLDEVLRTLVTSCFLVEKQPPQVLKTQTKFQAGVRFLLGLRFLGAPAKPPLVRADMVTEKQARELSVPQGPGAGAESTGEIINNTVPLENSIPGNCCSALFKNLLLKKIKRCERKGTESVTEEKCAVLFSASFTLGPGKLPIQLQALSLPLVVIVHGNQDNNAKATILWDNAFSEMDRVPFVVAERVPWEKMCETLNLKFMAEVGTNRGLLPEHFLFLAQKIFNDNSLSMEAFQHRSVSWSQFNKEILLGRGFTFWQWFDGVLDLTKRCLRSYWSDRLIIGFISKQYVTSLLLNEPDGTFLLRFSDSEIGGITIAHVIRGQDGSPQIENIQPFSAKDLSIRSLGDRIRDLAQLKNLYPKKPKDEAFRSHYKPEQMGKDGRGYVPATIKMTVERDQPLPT
In short: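 Serially diluted compounds received a premix of STAT6 (W123-T658, 250 nM) and 5-FAM peptide probe (2 nM) in pH 7.4 HEPES buffer containing DTT and Tween 20. Following 45 min at room temperature, FP was recorded. IC50s were fitted by nonlinear regression; values are binned A (≤300 nM), B (>300-3000 nM), C (>3-30 μM), D (>30 μM).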

[2] = molecular target: T2, Recombinant STAT3 protein (STAT3 (G127-I722)) (Homo sapiens, UniProt P40763); experiment: STAT3 Fluorescence Polarization (FP) Assay; type: binding; details: probe 5-FAM-GpYLPQTV-NH2 2 nM, 45-minute incubation
T2 construct: Recombinant STAT3 protein (STAT3 (G127-I722))
In short: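 Compounds in serial dilution receive a premix of STAT3 (G127-I722, 25 nM) and fluorescent phosphotyrosine peptide 5-FAM-GpYLPQTV-NH2 (2 nM) at pH 7.4. After 45 min at room temperature, FP is measured and IC50 derived by nonlinear regression.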

[3] = STAT6 250 nM, read-out: STAT6 (FP assay IC50)
[4] = STAT3 25 nM, read-out: STAT3 (FP assay IC50)
[5] = STAT6 (W123-T658) 250 nM, read-out: STAT6 (FP assay IC50 class)
[6] = STAT3 (G127-I722) 25 nM, read-out: STAT3 (FP assay IC50 class)

T2 sequence (P40763 127-722): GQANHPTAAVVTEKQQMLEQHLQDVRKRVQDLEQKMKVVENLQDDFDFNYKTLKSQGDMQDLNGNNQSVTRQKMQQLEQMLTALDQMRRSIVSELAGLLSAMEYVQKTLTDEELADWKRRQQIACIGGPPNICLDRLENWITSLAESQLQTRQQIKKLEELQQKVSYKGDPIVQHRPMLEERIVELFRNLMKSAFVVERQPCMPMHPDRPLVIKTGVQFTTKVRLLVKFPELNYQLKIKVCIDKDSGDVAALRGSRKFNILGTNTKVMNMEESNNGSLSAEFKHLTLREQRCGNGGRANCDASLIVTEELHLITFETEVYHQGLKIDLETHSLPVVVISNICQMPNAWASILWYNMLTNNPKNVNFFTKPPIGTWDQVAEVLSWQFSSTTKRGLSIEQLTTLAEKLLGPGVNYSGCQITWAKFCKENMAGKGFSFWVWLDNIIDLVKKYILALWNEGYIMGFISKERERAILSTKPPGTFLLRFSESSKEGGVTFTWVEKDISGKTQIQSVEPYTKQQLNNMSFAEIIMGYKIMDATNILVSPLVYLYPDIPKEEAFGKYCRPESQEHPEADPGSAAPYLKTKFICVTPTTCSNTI

Row | Structure (SMILES) | IC50 [1, 3] [µM] | IC50 [2, 4] [µM] | IC50 [1, 5] [µM] | IC50 [2, 6] [µM]
1 | O=C(N[C@H]1CCC2(CC2)C[C@H]2CC[C@@H](C(=O)N3CC(C(=O)N4CCOCC4)C3)N2C1=O)c1cc2cc(C(F)(F)P(=O)(O)O)ccc2s1 [Compound 114, (difluoro(2-(((3′S,6′S, 10aR)-3′-(3-(morpholine-4-carbonyl)azetidine-1-carbonyl)-5′-oxooctahydro-1′H-spiro [cyclopropane-1,9′-pyrrolo[1,2-a]azocin]-6′-yl)carbamoyl)benzo[b]thiophen-5-yl)methyl) phosphonic acid] | 3 to 30 | < 0.1 |  | 
2 | O=C(N[C@H]1CCC[C@H]2CC[C@@H](C(=O)N3CC(c4cnccc4N4CCOCC4)C3)N2C1=O)c1cc2cc(C(F)P(=O)(O)O)ccc2s1 (stereo partly drawn) [Compound 626, (fluoro(2-(((3S,6S,9aS)-3-(3-(4-morpholinopyridin-3-yl)azetidine-1-carbonyl)-5-oxooctahydro-1H-pyrrolo[1,2-a]azepin-6-yl)carbamoyl)benzo [b]thiophen-5-yl)methyl) phosphonic acid] |  |  | 3 to 30 | < 0.1
3 | O=C(N[C@H]1CCC[C@H]2CC[C@@H](C(=O)N3CC(c4cnccc4N4CC5(COC5)C4)C3)N2C1=O)c1cc2cc(CP(=O)(O)O)ccc2s1 [Compound 704, ((2-(((3S,6S,9aS)-3-(3-(4-(2-oxa-6-azaspiro[3.3]heptan-6-yl)pyridin-3-yl)azetidine-1-carbonyl)-5-oxooctahydro-1H-pyrrolo[1,2-a]azepin-6-yl)carbamoyl)benzo [b]thiophen-5-yl)methyl) phosphonic acid] |  |  | 3 to 30 | < 0.1
4 | O=C(N[C@H]1CCC[C@H]2CC[C@@H](C(=O)N3CC(c4cnccc4N4CC[C@@H]4C(F)F)C3)N2C1=O)c1cc2cc(CP(=O)(O)O)ccc2s1 [Compound 668, ((2-(((3S,6S,9aS)-3-(3-(4-((R)-2-(difluoromethyl)azetidin-1-yl)pyridin-3-yl)azetidine-1-carbonyl)-5-oxooctahydro-1H-pyrrolo[1,2-a]azepin-6-yl)carbamoyl)benzo [b]thiophen-5-yl)methyl) phosphonic acid] |  |  | 3 to 30 | < 0.1
5 | C[C@@H]1C[C@H](NC(=O)c2cc3cc(C(F)(F)P(=O)(O)O)ccc3s2)C(=O)N2[C@H](CC[C@H]2C(=O)N2CC[C@@H](c3ccccc3)C2)C[C@H]1O [Compound 100, (difluoro(2-(((3S,6S,8R,9R, 10aR)-9-hydroxy-8-methyl-5-oxo-3-((S)-3-phenylpyrrolidine-1-carbonyl)decahydropyrrolo [1,2-a]azocin-6-yl)carbamoyl)benzo[b]thiophen-5-yl)methyl) phosphonic acid] | ≤ 0.3 | 1 to 10 |  | 
6 | Cn1ncc(C2CN(C(=O)[C@@H]3CC[C@@H]4CCC[C@H](NC(=O)c5cc6cc(C(F)P(=O)(O)O)ccc6s5)C(=O)N43)C2)c1O (stereo partly drawn) [Compound 607, (fluoro(2-(((3S,6S,9aS)-3-(3-(5-hydroxy-1-methyl-1H-pyrazol-4-yl)azetidine-1-carbonyl)-5-oxooctahydro-1H-pyrrolo[1,2-a]azepin-6-yl)carbamoyl)benzo [b]thiophen-5-yl)methyl) phosphonic acid] |  |  | 0.3 to 3 | < 0.1
7 | Cn1ncc(C2CCN(C(=O)[C@@H]3CC[C@@H]4CCCC[C@H](NC(=O)c5ccc6ccc(C(F)P(=O)(O)O)cc6c5)C(=O)N43)C2)cc1=O (stereo partly drawn) [Compound 902, (fluoro(7-(((3S,6S,10aS)-3-(3-(1-methyl-6-oxo-1,6-dihydropyridazin-4-yl)pyrrolidine-1-carbonyl)-5-oxodecahydropyrrolo [1,2-a]azocin-6-yl)carbamoyl)naphthalen-2-yl)methyl) phosphonic acid] |  |  | 3 to 30 | 1 to 10
8 | O=C(N[C@H]1CCC[C@H]2CC[C@@H](C(=O)NCc3ccc4[nH]c(=O)[nH]c4c3)N2C1=O)c1cc2cc(C(F)(F)P(=O)(O)O)ccc2s1 [Compound 1117, (difluoro(2-(((3S,6S,9aS)-5-oxo-3-(((2-oxo-2,3-dihydro-1H-benzo[d]imidazol-5-yl)methyl)carbamoyl)octahydro-1H-pyrrolo[1,2-a]azepin-6-yl)carbamoyl)benzo[b]thiophen-5-yl)methyl)phosphonic acid] |  |  | 0.3 to 3 | 0.1 to 1
9 | CS(=O)(=O)NC1CN(C(=O)[C@@H]2CC[C@@H]3CCCC[C@H](NC(=O)c4cc5cc(C(F)(F)P(=O)(O)O)ccc5s4)C(=O)N32)C1 [Compound 787, (difluoro(2-(((3S,6S,10aS)-3-(3-(methylsulfonamido)azetidine-1-carbonyl)-5-oxodecahydropyrrolo [1,2-a]azocin-6-yl)carbamoyl)benzo [b]thiophen-5-yl)methyl) phosphonic acid] |  |  | 0.3 to 3 | < 0.1
10 | N#C[C@@H]1[C@@H](c2cccnc2)CN(C(=O)[C@@H]2CC[C@@H]3CCCC[C@H](NC(=O)c4cc5cc([C@H](F)P(=O)(O)O)ccc5s4)C(=O)N32)C12CC2 (single isomer, unassigned) [Compound 839] |  |  | ≤ 0.3 | 1 to 10
11 | COc1ccncc1C1CN(C(=O)[C@@H]2CC[C@@H]3CCCC[C@H](NC(=O)c4cc5cc(C(F)P(=O)(O)O)ccc5s4)C(=O)N32)C1 (stereo partly drawn) [Compound 236, (fluoro(2-(((3S,6S,10aS)-3-(3-(4-methoxypyridin-3-yl)azetidine-1-carbonyl)-5-oxodecahydropyrrolo[1,2-a]azocin-6-yl)carbamoyl)benzo[b]thiophen-5-yl)methyl)phosphonic acid] |  |  | 3 to 30 | < 0.1
12 | O=C(N[C@H]1CCC[C@H]2CC[C@@H](C(=O)N3CC(c4cnccc4N4CCOCC4)C3)N2C1=O)c1cc2cc([C@@H](F)P(=O)(O)O)ccc2s1 (single isomer, unassigned) [Compound 745] |  |  | 3 to 30 | < 0.1
13 | N=S1(=O)CCC(C2CN(C(=O)[C@@H]3CC[C@@H]4CCCC[C@H](NC(=O)c5cc6cc(C(F)(F)P(=O)(O)O)ccc6s5)C(=O)N43)C2)CC1 (stereo partly drawn) [Compound 61, (difluoro(2-(((3S,6S,10aS)-3-(3-(1-imino-1-oxidohexahydro-1l6-thiopyran-4-yl)azetidine-1-carbonyl)-5-oxodecahydropyrrolo [1,2-a]azocin-6-yl)carbamoyl)benzo[b]thiophen-5-yl)methyl) phosphonic acid] | 0.3 to 3 | 0.1 to 1 |  | 
14 | N#C[C@H]1[C@H](c2ccccc2)CN(C(=O)[C@@H]2CC[C@@H]3CCCC[C@H](NC(=O)c4cc5cc([C@@H](F)P(=O)(O)O)ccc5s4)C(=O)N32)C12CC2 (single isomer, unassigned) [Compound 836] |  |  | ≤ 0.3 | 1 to 10
15 | O=C(N[C@H]1CCC[C@H]2CC[C@@H](C(=O)NCc3ccc4[nH]cnc4c3)N2C1=O)c1cc2cc(C(F)(F)P(=O)(O)O)ccc2s1 [Compound 1115, ((2-(((3S,6S,9aS)-3-(((1H-benzo[d]imidazol-5-yl)methyl)carbamoyl)-5-oxooctahydro-1H-pyrrolo[1,2-a]azepin-6-yl)carbamoyl)benzo[b]thiophen-5-yl)difluoromethyl)phosphonic acid] |  |  | 0.3 to 3 | < 0.1
16 | Cc1nnc([C@H]2[C@H](c3ccccc3)CN2C(=O)[C@@H]2CC[C@@H]3CCC[C@H](NC(=O)c4cc5cc(C(F)P(=O)(O)O)ccc5s4)C(=O)N32)o1 (single isomer, unassigned) [Compound 674] |  |  | 3 to 30 | 0.1 to 1
17 | Cn1ncc(C2CCN(C(=O)[C@@H]3CC[C@@H]4CCCC[C@H](NC(=O)c5cc6cc(C(F)P(=O)(O)O)ccc6s5)C(=O)N43)C2)cc1=O (stereo partly drawn) [Compound 913, (fluoro(2-(((3S,6S,10aS)-3-(3-(1-methyl-6-oxo-1,6-dihydropyridazin-4-yl)pyrrolidine-1-carbonyl)-5-oxodecahydropyrrolo [1,2-a]azocin-6-yl)carbamoyl)benzo [b]thiophen-5-yl)methyl) phosphonic acid] |  |  | 0.3 to 3 | 1 to 10
18 | N#CCC1CN(C(=O)[C@@H]2CC[C@@H]3CCC[C@H](NC(=O)c4cc5cc(C(F)(F)P(=O)(O)O)ccc5s4)C(=O)N32)C1 [Compound 50, ((2-(((3S,6S,9aS)-3-(3-(cyanomethyl)azetidine-1-carbonyl)-5-oxooctahydro-1H-pyrrolo[1,2-a]azepin-6-yl)carbamoyl)benzo[b]thiophen-5-yl)difluoromethyl) phosphonic acid] | 0.3 to 3 | 0.1 to 1 |  | 
